According to US20250073215A1 (priority 2023, published 2025):

Key:
[1] = cited from earlier work
[2] = tested on: human bronchial epithelial cells (BEAS-2B cells); details: in vitro; cited from earlier work
BEAS-2B cells = details: cited from earlier work
cholinergic receptor = details: when interacting with the cholinergic receptor ligand; cited from earlier work

SMILES	lethal dose for humans [1]	satisfaction of nicotine craving compared with previously used nicotine products (100 individuals, twice a day for 60 days, participants' opinion)	addictiveness (conclusion of the study)	sensitivity of BEAS-2B cells (cytotoxicity) compared with nicotine [2]	effect on CRP expression compared with nicotine (BEAS-2B cells; BEAS-2B cells)	effect on tumour development and metastasis compared with nicotine (BEAS-2B cells; NF-κB p65, EGFR, MET by immunoblotting and real-time PCR)	cancer-related proteins (CRPs) with differential expression compared with control group (BEAS-2B cells; transcriptome sequencing, BEAS-2B cells)	antinociceptive effects (cholinergic receptor)
CN1CCC[C@H]1c1cccnc1 [Nicotine, 3-[(2S)-1-methyl-2-pyrrolidinyl]pyridine]	50 to 100 mg							
Cc1ccc([C@@H]2CCCN2C)cn1 [(S)-2-Methyl-5-(1-methyl-2-pyrrolidinyl)pyridine]		faster	not addictive	more sensitive	greater negative effect on CRP expression than nicotine	greater negative effect on tumour development and metastasis than nicotine	1208	displays antinociceptive effects
